Consider one molecule from ChEMBL document CHEMBL5096223, “Design, synthesis, and biological evaluation of 2-arylamino-4-(piperidin-4-yloxy)pyrimidines as potent EGFRT790M/L858R inhibitors to treat non-small cell lung cancer” (Bioorg Med Chem, 2022).

Activity calls are given as the source filed them. The rule behind the calls is not given here.

Series [1] deals with NCI-H1975. The series is described as follows: Antiproliferative activity against human NCI-H1975 cells harboring EGFR T790M/L858R mutant assessed as reduction in cell growth incubated for 72 hrs by MTT assay. The format is functional, cell-based. Conditions: NCI-H1975, 72 h. (Formazan colour is commonly taken as a measure of viable cells.)
Series [2] can be described thus: Cytotoxicity against human HBE cells assessed as reduction in cell viability incubated for 72 hrs by MTT assay. The format is toxicity, cell-based, Epithelial cell.
Series [3] can be described thus: Cytotoxicity against human L02 cells assessed as reduction in cell viability incubated for 72 hrs by MTT assay. The format is toxicity, cell-based.
Series [4] has as its system NCI-H1975. The series is described as follows: Inhibition of cell migration in human NCI-H1975 cells at 0.05 to 0.5 uM by scratch wound healing assay. The format is functional, cell-based. The note with it: dose 0.05-0.5 µM, time 24-48 hrs, TDE = time-dependent effect.
The nature of series [5]: Selectivity index, ratio of IC50 for cytotoxicity against human L02 cells to IC50 for cytotoxicity against human NCI-H1975 cells harboring EGFR T790M/L858R mutant. The format is toxicity, cell-based. The note with it: read-out: Ratio IC50.
Series [6] addresses Epidermal growth factor receptor (Homo sapiens, UniProt P00533, L858R/T790M). The series is described as follows: Inhibition of N-terminal GST-tagged human recombinant EGFR T790M/L858R mutant (695 to end residues) expressed in baculovirus-infected Sf9 cells using poly (4:1 Glu,Tyr) peptide as substrate incubated for 60 mins in presence of ATP by ADP-Glo kinase assay. In general terms: In ADP-Glo the light output rises with the ADP produced.

Series [7] can be described thus: Cytotoxicity against human A-431 cells harboring wild type EGFR assessed as reduction in cell viability incubated for 72 hrs by MTT assay. The format is toxicity, cell-based.
Series [8] has as its system NCI-H1975. Description: Inhibition of cell migration in human NCI-H1975 cells incubated for 24 to 48 hrs by scratch wound healing assay. The format is functional, cell-based. The note with it: dose 0.05-0.5 µM, time 24-48 hrs, DDE = dose-dependent effect.
Series [9] relates to NCI-H1975. The series is described as follows: Induction of apoptosis in human NCI-H1975 cells assessed as increase in number of nonviable apoptotic cells at 5 to 10 uM incubated for 48 hrs by AO/EB staining based fluorescence microscopic analysis. The format is functional, cell-based. Conditions: dose 5-10 µM.
The test system of series [10] is ASPC1. The series is described as follows: Antiproliferative activity against human ASPC1 cells harboring KRAS G12D mutant assessed as reduction in cell growth incubated for 72 hrs by MTT assay. Conditions: ASPC1, 72 h. The format is functional, cell-based.
The species entered for series [11] is Homo sapiens. The series is described as follows: Selectivity index, ratio of IC50 for N-terminal GST-tagged human recombinant wild type EGFR (695 to end residues) expressed in baculovirus-infected Sf9 cells to IC50 for N-terminal GST-tagged human recombinant EGFR T790M/L858R mutant (695 to end residues) expressed in baculovirus-infected Sf9 cells. The format is functional.

Series [12] in a line: Selectivity index, ratio of IC50 for cytotoxicity against human HBE cells to IC50 for cytotoxicity against human NCI-H1975 cells harboring EGFR T790M/L858R mutant. The format is toxicity, cell-based. Conditions: read-out: Ratio IC50.
The target of series [13] is Epidermal growth factor receptor (Homo sapiens, UniProt P00533). The series is described as follows: Inhibition of N-terminal GST-tagged human recombinant wild type EGFR (695 to end residues) expressed in baculovirus-infected Sf9 cells using poly (4:1 Glu,Tyr) peptide as substrate incubated for 60 mins in presence of ATP by ADP-Glo kinase assay.
Epidermal growth factor receptor (Homo sapiens, UniProt P00533), sequence (P00533 whole entry): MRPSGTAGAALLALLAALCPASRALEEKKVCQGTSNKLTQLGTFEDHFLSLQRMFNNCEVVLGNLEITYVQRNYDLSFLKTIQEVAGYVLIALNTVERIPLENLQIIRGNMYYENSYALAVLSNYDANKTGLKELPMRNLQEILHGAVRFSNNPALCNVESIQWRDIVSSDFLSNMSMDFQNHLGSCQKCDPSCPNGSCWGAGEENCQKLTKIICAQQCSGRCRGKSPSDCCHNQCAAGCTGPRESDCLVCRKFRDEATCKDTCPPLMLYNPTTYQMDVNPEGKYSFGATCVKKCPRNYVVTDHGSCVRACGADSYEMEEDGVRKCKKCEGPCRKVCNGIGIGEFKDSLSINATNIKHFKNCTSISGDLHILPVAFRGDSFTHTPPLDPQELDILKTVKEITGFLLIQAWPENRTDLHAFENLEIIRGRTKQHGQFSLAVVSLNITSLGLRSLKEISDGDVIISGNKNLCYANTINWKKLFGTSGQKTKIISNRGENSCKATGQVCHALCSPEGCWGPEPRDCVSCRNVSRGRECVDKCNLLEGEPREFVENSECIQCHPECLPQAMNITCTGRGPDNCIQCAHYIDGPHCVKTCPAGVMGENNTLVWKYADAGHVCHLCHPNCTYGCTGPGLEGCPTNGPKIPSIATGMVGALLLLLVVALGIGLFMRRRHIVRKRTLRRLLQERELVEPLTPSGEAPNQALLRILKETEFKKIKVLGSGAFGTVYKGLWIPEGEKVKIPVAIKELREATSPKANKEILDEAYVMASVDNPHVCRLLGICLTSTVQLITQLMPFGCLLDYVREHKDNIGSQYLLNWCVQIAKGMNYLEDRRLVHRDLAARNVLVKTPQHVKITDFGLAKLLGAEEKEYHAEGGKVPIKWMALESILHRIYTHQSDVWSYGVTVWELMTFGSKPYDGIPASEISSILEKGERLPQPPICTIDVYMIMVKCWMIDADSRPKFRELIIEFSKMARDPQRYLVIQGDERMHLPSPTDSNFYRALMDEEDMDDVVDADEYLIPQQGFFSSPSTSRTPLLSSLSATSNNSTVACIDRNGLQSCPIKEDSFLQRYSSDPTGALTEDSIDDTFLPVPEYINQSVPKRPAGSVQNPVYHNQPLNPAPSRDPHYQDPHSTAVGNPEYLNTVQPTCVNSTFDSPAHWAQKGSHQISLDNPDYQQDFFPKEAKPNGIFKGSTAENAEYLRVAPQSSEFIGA
For series [14], the system named is NCI-H1975. Description: Induction of apoptosis in human NCI-H1975 cells assessed as increase in died cells with few cells containing intact DNA at 10 uM incubated for 48 hrs by DAPI staining based fluorescence microscopic analysis. The format is functional, cell-based.
The test system of series [15] is SW-620. The series is described as follows: Antiproliferative activity against human SW620 cells harboring KRAS G12V mutant assessed as reduction in cell growth incubated for 72 hrs by MTT assay. The format is functional, cell-based. Conditions: SW-620, 72 h.
Series [16] relates to NCI-H1975. The series is described as follows: Induction of morphological changes in human NCI-H1975 cells incubated for 48 hrs by AO/EB staining based fluorescence microscopic analysis. The note with it: dose 1-10 µM, DDE = dose-dependent effect. The format is functional, cell-based.
For series [17], the system named is NCI-H1975. The series is described as follows: Induction of apoptosis in human NCI-H1975 cells assessed as chromatin shrinkage and accumulation in the nucleus at 1 to 10 uM incubated for 48 hrs by DAPI staining based fluorescence microscopic analysis. The format is functional, cell-based. The note with it: dose 1-10 µM.
The test system of series [18] is NCI-H358. Description: Antiproliferative activity against human NCI-H358 cells harboring KRAS G12C mutant assessed as reduction in cell growth incubated for 72 hrs by MTT assay. The format is functional, cell-based. The note with it: NCI-H358, 72 h.
For series [19], the system named is NCI-H1975. The series is described as follows: Induction of apoptosis in human NCI-H1975 cells assessed as nuclear fragmentation by measuring breakdown of nucleus into small membrane blebs with compacted DNA at 1 to 10 uM incubated for 48 hrs by DAPI staining based fluorescence microscopic analysis. The format is functional, cell-based. The note with it: dose 1-10 µM.

Usually IC50 stands for the concentration at which inhibition is half-maximal.

Epidermal growth factor receptor (Homo sapiens, UniProt P00533, L858R/T790M), sequence (P00533 25-1210 T790M/L858R limits assumed): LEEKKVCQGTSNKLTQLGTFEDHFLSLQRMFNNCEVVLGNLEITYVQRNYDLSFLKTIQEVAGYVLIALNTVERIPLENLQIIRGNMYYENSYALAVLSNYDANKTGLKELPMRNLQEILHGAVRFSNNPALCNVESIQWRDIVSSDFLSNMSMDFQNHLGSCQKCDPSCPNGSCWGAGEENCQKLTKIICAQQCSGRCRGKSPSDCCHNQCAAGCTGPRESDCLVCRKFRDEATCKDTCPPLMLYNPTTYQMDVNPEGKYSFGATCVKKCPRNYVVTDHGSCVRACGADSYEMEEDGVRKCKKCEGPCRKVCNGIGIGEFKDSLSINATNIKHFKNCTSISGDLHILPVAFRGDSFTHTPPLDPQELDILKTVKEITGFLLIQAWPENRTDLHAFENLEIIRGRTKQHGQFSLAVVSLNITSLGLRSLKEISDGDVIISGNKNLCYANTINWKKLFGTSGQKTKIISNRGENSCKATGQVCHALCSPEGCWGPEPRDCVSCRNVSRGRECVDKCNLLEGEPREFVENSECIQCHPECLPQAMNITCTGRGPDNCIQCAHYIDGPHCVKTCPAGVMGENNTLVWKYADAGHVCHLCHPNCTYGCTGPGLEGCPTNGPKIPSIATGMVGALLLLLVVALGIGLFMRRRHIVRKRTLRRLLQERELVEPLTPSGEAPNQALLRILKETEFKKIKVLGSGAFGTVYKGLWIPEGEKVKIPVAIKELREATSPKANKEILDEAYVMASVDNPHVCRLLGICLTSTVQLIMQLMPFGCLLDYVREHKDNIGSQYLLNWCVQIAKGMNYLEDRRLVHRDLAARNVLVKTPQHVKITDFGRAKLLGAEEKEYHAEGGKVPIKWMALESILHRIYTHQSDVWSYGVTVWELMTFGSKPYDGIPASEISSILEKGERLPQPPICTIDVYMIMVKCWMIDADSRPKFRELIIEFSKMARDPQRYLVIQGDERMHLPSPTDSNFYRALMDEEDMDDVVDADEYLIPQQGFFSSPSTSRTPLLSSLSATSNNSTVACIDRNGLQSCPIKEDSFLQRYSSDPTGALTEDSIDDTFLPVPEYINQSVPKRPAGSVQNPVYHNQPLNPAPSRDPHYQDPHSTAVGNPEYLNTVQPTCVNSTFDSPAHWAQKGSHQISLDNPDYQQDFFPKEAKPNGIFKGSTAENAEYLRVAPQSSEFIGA

On to `C=CC(=O)N1CCC(Oc2nc(Nc3ccc(N4CCN(C)CC4)cc3)nc3ccsc23)CC1`, for which the half-maximal inhibitory concentration (IC50) stood at 0.62 µM in [1]; 0.0049 µM in [6]; 5.31 µM in series [10]; 0.359 µM in series [13]; 7.45 µM in [15]; 18.9 µM in series [18]. Also, the IC50 at 72 h in series [2] came to 9.05 µM; in series [3], 8.45 µM; in series [7], 4.18 µM. Moreover, the inhibition entry is “Tde” in [4] and “Dde” in series [8]. The selectivity ratio in series [5] and in series [12] was 13 each time. Also, the result in series [9], in [14], in [17] and in series [19] was Active. Also, in series [11], the Ratio IC50 was found to be 73.3. Also, the Activity result in [16] was “Dde”.
